Assay results taken from PMC4016822 (Molecular bioSystems, 2014).
“Also recorded” adds a separate entry of the source.

Columns and labels:
[1] = system: NSCLC cancer cell lines H1299, A459, H460; test: MTT proliferation assay, NSCLC cell panel; assay type: cell-based, Human; conditions: for EC50: Homo sapiens
[2] = system: non-cancer WI38 fibroblast cell line; test: MTT proliferation assay in WI38 fibroblasts; assay type: cell-based; conditions: for effect on WI38 proliferation: compared with the NSCLC lines
H460 = test: MTT proliferation assay in H460 cells; assay type: cell-based, Human; conditions: 3 days
[3] = mouse, in vivo
[4] = system: H460 NSCLC human xenograft; test: H460 NSCLC human xenograft model, tumor growth; assay type: in vivo, NOD/SCID mice; conditions: for median tumor volume: day 24, i.p. daily; for median tumor volume / tumor weight smaller than vehicle: losartan 50 mg/kg, astemizole 10 mg/kg; for tumor weight smaller than vehicle: last day of study, i.p. daily, p<0.01
[5] = system: H460 NSCLC human xenograft; test: Histopathology of resected tumors, mitotic index; assay type: in vivo, NOD/SCID mice

## CS(=O)(=O)CCNCc1ccc(-c2ccc3ncnc(Nc4ccc(OCc5cccc(F)c5)c(Cl)c4)c3c2)o1 [Lapatinib]
[1]
  EC50: 30 to 40 µM

## C=C(c1ccc(C(=O)O)cc1)c1cc2c(cc1C)C(C)(C)CCC2(C)C [Bexarotene]
[1]
  EC50: ~50 µM
[2]
  effect on WI38 proliferation: weaker effect on WI38 proliferation

## CN1C[C@H](C(=O)N[C@]2(C)O[C@@]3(O)[C@@H]4CCCN4C(=O)[C@H](Cc4ccccc4)N3C2=O)C=C2c3cccc4[nH]cc(c34)C[C@H]21 [Ergotamine]
H460
  EC50: 26 ± 1 µM
[2]
  effect on WI38 proliferation: significantly less effect on WI38

## COc1ccc(CCN2CCC(Nc3nc4ccccc4n3Cc3ccc(F)cc3)CC2)cc1 [Astemizole]
[3]
  animal's body weight: no significant alteration
[4]; astemizole group n = 9, smallest vehicle tumor 3.2 g
  number of mice with tumors that weighed less than 3.2 g: Three
[4]
  median tumor volume: 2,810 mm^3
  tumor weight smaller than vehicle: 15%

## Cc1nc(Nc2ncc(C(=O)Nc3c(C)cccc3Cl)s2)cc(N2CCN(CCO)CC2)n1 [Dasatinib]
[2]; WI38, MTT, 3 days
  EC50: sub-micromolar

## CCCCc1nc(Cl)c(CO)n1Cc1ccc(-c2ccccc2-c2nn[nH]n2)cc1 [Losartan]
[3]
  animal's body weight: no significant alteration
[1]; concentrations up to 100 μM
  cytotoxicity: very little cytotoxicity
[4]
  median tumor volume: 2,463 mm^3
  tumor weight smaller than vehicle: 50%
[4]; losartan group n = 10, none of the vehicle
  number of mice with tumors that weigh less than 2.5 g: Four
[5]; histopathology of resected tumors
  G2M arrest in the cell cycle: significant propensity to cause G2M arrest; also recorded: induced more significant G2M arrest
[5]; ratio of mitotic to non-mitotic cells in tumor tissue, vehicle 7
  mitotic index (MI): 18
